Columns and labels:
[1] = test system: LoVo colon carcinoma cells; test: Cell viability, LDH release assay, LoVo; settings: 48 h; for viability at 100 µg/mL / IC50: Homo sapiens, LoVo; for viability at 100 µg/mL: read-out: Mean % of viable cells ± SD, LoVo, 100 µg/mL, 48 h, LDH release assay; for IC50: read-out: Mean IC50 Values in µM ± SD, LoVo cells
Protocol: (§1) The studied compounds were also screened for their cytotoxic effects on HCT-116 and LoVo colon carcinoma cells, as well as normal HUVECs, using the standard LDH assay at a concentration of 100 µg/mL.
(§2) The antiproliferative activities of the newly synthesized compounds 3a–e, 8, 9a–c, 13, 14, 17, 18a–h, 20, 22, 23 and 25 were examined on human colon HCT-116 and LoVo cell lines as well as HUVEC (American Type Culture Collection, Manassas, VA, USA). […]
(§3) S3.2.4. Cell culture and viability assay.
(§4) The cytotoxic activities of the newly synthesized compounds (3a-e, 8, 9a-c, 13, 14, 17, 18a-h, 20, 22,
(§5) 23, and 25) were examined on human colon cancer cell lines HCT-116 and Lovo (American Type
(§6) Culture Collection, USA). Various concentrations (50, 100, 200, and 400 μg/mL) of test compounds
(§7) were prepared in Dulbecco’s Modified Eagles Medium (PAN-Biotech, Barcelona, Spain),

PDK-1 = PDK-1 (Homo sapiens, UniProt Q15118); test: In vitro PDK-1 inhibition assay (Kinase-Glo luminescent kinase kit); type: biochemical; settings: 100 µg/mL, three replicates; for inhibition at 100 µg/mL: read-out: Mean Inhibition Percent ± SD, PDK-1
PDK-1, sequence (Q15118 29-436): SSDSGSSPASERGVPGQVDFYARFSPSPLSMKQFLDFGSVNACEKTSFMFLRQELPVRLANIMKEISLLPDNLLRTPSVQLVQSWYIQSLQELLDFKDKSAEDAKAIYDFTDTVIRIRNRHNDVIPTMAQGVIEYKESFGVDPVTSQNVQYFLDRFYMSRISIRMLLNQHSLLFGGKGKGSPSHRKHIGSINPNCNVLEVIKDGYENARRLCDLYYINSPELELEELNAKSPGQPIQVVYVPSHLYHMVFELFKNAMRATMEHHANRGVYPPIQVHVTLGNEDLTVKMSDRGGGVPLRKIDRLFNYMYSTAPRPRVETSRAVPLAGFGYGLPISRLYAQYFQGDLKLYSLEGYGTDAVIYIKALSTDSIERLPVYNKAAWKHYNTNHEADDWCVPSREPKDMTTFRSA
Protocol: Principally, the PDK-1 inhibitory activities were evaluated using the non-radioactive Kinase-Glo™ Luminescent Kinase Kit (Promega Corporation, Madison, WI, USA) following the instructions of the manufacturer.
S3.2.2. In vitro PDK-1 inhibition assay.
The PDK-1 inhibitory activities of the test compounds were evaluated using the non-radioactive
Kinase-Glo™ Luminescent Kinase kit (Promega Corporation, Madison, WI, USA), following the
manufacturer’s protocol. Briefly, 5 μL of assay buffer—containing 10 × 250 mM Tris-HCl, 50 mM
MgCl2, 5 mM ethyleneglycol-bis(β-aminoethylether)-N,N,N′,N′-tetraacetic acid (EGTA), 10 mM
ethylenedi- aminetetraacetic acid (EDTA), and 10 mM dithiothreitol (DTT)—was added to each
well of a 96-well plate, along with 25 μL of distilled water. Subsequently, 5 μL of each test
compound at various concentrations (50, 100, 200 and 300 μg/mL in 1% DMSO) was added to the
respective wells, except for the two control wells, which received 5 μL of either PBS buffer or 1%
DMSO. Then, 5 μL of pyruvate dehydrogenase E1 (PDH E1) protein (10 μM) and 5 μL of ATP
(10 μM) were added to each well. To initiate phosphorylation, 5 μL of PDK-1 (20 μM) in protein
buffer (1 mM MgCl2, 2000 mM KCl, 40 mM K3PO4) was added to all the wells except the control
wells, which received 5 μL of protein buffer instead. The plate was then mixed thoroughly and
incubated at 37 °C for 30 minutes. After incubation, 50 μL of kinase-Glo® reagent was added to each
well, followed by a 10-minute incubation at room temperature with gentle shaking to stabilize the
luminescent signal. Luminescence was then measured using a microplate reader.
The IC50 value—defined as the concentration of a compound required to reduce luminescence by
50%, compared to untreated control wells—was determined for each compound from the
corresponding dose–response curve generated by plotting PDK-1 inhibition (%) versus compound
concentration. Sodium dichloroacetate (SDA, 1000 μM) was used as a reference PDK-1inhibitor. […]

[2] = DPPH radical scavenging assay; settings: three independent experiments; read-out: Mean IC50 (mM) for initial DPPH radicals ± SD
Protocol: The antioxidant activities of the studied compounds were assessed using the 1,1-diphenyl-2-picrylhydrazyl (DPPH) radical scavenging method as detailed by Bersuder et al.. The results were expressed as IC50 (mM)—the concentration of the test compound required to neutralize 50% of DPPH radicals.
The antioxidant efficiencies of target compounds were determined using the 1,1-diphenyl-2-picrylhydrazyl (DPPH) radical scavenging method as detailed by Bersuder et al.. […]
S3.2. Evaluation of Biological Activities.
S3.2.1. In vitro DPPH radical scavenging assay.
The antioxidant efficiencies of compounds—3a−e, 8, 9a−c, 13, 14, 17, 18a−h, 20, 22, 23, and 25—were
determined using the 1,1-diphenyl-2-picrylhydrazyl (DPPH) radical scavenging method as
detailed by Bersuder et al.. Fundamentally, the purple color of the stabilized DPPH radical
fades in the presence of an antioxidant, thus, the change of absorbance can be followed
spectrophotometrically at 519 nm. In the assay, equal volumes (0.5 mL) of DPPH ethanolic solution
and each compound (0-2 mg/mL in DMSO) or butylated hydroxytoluene (BHT) as the reference
were mixed well by shaking. The negative control consisted of the same amount of DMSO and
DPPH solution. After, incubation all mixtures at room temperature in the dark for one hour, the
absorbance of the residual DPPH radicals was measured at 519 nm using the UV‐vis
spectrophotometer. The DPPH radical scavenging activity of each compound (%) was calculated
Scavenging activity = (1 − Acompound/AControl) * 100, where Acompound and Acontrol the absorbance values
of each tested compound (or BHT) and the negative control, respectively. The half maximal
inhibitory concentration (IC50) for each compound in mg/mL was deduced by graphing the dose-
response curve relating the scavenging activity (%) to the compound concentration. Data points
represent the mean ± standard deviation (SD) of three independent determinations.

[3] = Cell viability, LDH release assay, normal HUVECs; settings: human, normal HUVECs, Mean % of viable cells ± SD, HUVEC
Protocol: as §1, §2
(§8) medium served used as negative and positive controls, respectively. Percentages of viable cells […]
(§9) were calculated based on relative optical density (OD) values (at 550 nm) for compound-treated […]
(§10) wells (final concentration of 100 μg/mL), compared to the negative control, and expressed as mean value (%) ± SD from two replicates. Graphing dose-response curves representing the compound […]
(§11) concentration versus the percentages of viable cells was also conducted to deduce the half - […]
(§12) Additionally, the safety profiles of the studied compounds were assessed against normal cells […]
(§13) (HUVECs) at final concentration of 100 μg/mL . HUVECs were grown in Dulbecco’s Modified Eagle’s Medium supplemented with 10% FBS, 2 mM glutamine (Sigma Aldrich), 100 units/mL penicillin and […] streptomycin (Life Technologies; Paisley, UK). […]

[4] = target: recombinant human LDHA protein (Homo sapiens, UniProt P00338); test: In vitro LDHA inhibitory assay (NADH consumption); type: biochemical; settings: 100 µg/mL, three replicates; for inhibition at 100 µg/mL: read-out: Mean Inhibition Percent ± SD, LDHA
Description: The LDHA inhibitory efficiencies were investigated on Spectramax M2 spectrofluorometer via measuring the amounts of the consumed NADH^40 using an NAD^+/NADH quantification kit. […]
S3.2.3. In vitro LDHA inhibitory assay.
The LDHA inhibitory activity of the test compounds was investigated using Spectramax M2
spectrofluorometer by measuring the amounts of the consumed NADH [42] employing
NAD+/NADH quantification kit. Briefly, the assay medium containing various concentrations of
each test compound (50, 100, 200 and 300 μg/mL) was incubated in assay medium composed of 20
mM of HEPES-K+ buffer (pH 7.2), 20 μM of NADH, 2 mM of pyruvate and 10 ng of purified
recombinant human LDHA protein for 10 min utes. The activity of LDHA would result in reduction
of pyruvate into lactate with concomitant oxidation of NADH to NAD +. Since NADH (reduced
LDHA, could be inversely quantified by monitoring the change in the intensity of the fluorescence
at 340 nm over a 10-minute period. The rate of the fluorescence change (slope) in treated samples
was compared to that obtained from negative control experiment (100 % enzymatic activity) to
determine the percentage of inhibition. The IC50 value—defined as the compound concentration
required to reduce the luminescence by 50%, compared to untreated control wells—was
determined for each compound from the corresponding dose–response curve generated by
plotting LDHA inhibition (%) against compound concentration.
was used as the reference LDHA inhibitor. […]

[5] = test system: HCT-116 colon carcinoma cells; test: Cell viability, LDH release assay, HCT-116; settings: for viability at 100 µg/mL / IC50: Homo sapiens, HCT-116, 48 h; for viability at 100 µg/mL: read-out: Mean % of viable cells ± SD, HCT-116, 100 µg/mL, 48 h, LDH release assay; for IC50: read-out: Mean IC50 Values in µM ± SD, HCT-116 cells
Protocol: as §1, §2, §3, §4, §5, §6, §7

HUVECs = test: Cell viability, LDH release assay, normal HUVECs; settings: 100 µg/mL, 48 h
Protocol: as §1, §2, §8, §9, §10, §11, §12, §13

Compound	viability at 100 µg/mL [1]	inhibition at 100 µg/mL (PDK-1)	IC50 [2]	viability at 48 h, 100 µg/mL [3]	inhibition at 100 µg/mL [4]	viability at 100 µg/mL [5]	IC50 [1]	IC50 [5]	Mean % of viable cells ± SD, LoVo ([1]; 100 µg/mL, LDH release assay)	Mean Inhibition Percent ± SD, PDK-1 (PDK-1)	Mean % of viable cells ± SD, HUVEC (HUVECs)	Mean Inhibition Percent ± SD, LDHA [4]	Mean % of viable cells ± SD, HCT-116 ([5]; 100 µg/mL, 48 h, LDH release assay)
Cc1nc2ccc(F)cc2c(=O)n1/N=C/c1c(O)ccc2ccccc12 [Compound 18f, (E)-6-Fluoro-3-(((2-hydroxynaphthalen-1-yl)methylene)amino)-2-methylquinazolin-4(3H)-one]	73 ± 3.46%	52 ± 3.61%	0.288 ± 0.029 mM	83 ± 1.73%	14.4 ± 1.41%	83 ± 3%	–	–	–	–	–	–	–
COc1ccc(/C=N/n2c(C)nc3ccc(F)cc3c2=O)cc1O [Compound 18g, (E)-6-Fluoro-3-((3-hydroxy-4-methoxybenzylidene)amino)-2-methylquinazolin-4(3H)-one]	74.7 ± 2.52%	66 ± 1.73%	0.238 ± 0.006 mM	88 ± 2.65%	22.2 ± 1.13%	58.7 ± 3.06%	–	–	–	–	–	–	–
Cc1nc2ccc(F)cc2c(=O)n1/N=C/c1cccs1 [Compound 18h, (E)-6-Fluoro-2-methyl-3-((thiophen-2-ylmethylene)amino)quinazolin-4(3H)-one]	33 ± 4.24%	37 ± 3.61%	0.379 ± 0.004 mM	78 ± 2%	18.9 ± 1.77%	37 ± 2%	479 ± 19.2 µM	498 ± 12.6 µM	–	–	–	–	–
CCOC(=O)c1sc(NC(=O)/C(=C/c2ccc(OC(C)=O)c(OC)c2)NC(=O)c2ccccc2)nc1C [Compound 20, Ethyl (Z)-2-(3-(4-Acetoxy-3-methoxyphenyl)-2-benzamido-acrylamido)-4-methylthiazole-5-carboxylate]	51 ± 2.83%	28.2 ± 1.06%	0.745 ± 0.027 mM	73 ± 2.75%	16.9 ± 1.27%	49 ± 2.83%	–	–	–	–	–	–	–
COc1cc(C=C(NC(=O)c2ccccc2)c2n[nH]c(=S)o2)ccc1O [Compound 22, N-(2-(4-Hydroxy-3-methoxyphenyl)-1-(5-thioxo-4,5-dihydro-1,3,4-oxa-diazol-2-yl)vinyl)benzamide]	29.5 ± 2.12%	39.5 ± 2.12%	0.65 ± 0.076 mM	79 ± 2%	27.2 ± 2.48%	40.5 ± 3.54%	437.3 ± 1.51 µM	511 ± 5.61 µM	–	–	–	–	–
COc1cc(/C=C(\NC(=O)c2ccccc2)C(=O)NNC(=S)Nc2ccccc2)ccc1O [Compound 23, N-(1-(4-Hydroxy-3-methoxyphenyl)-3-oxo-3-(2-(phenylcarbamothionyl)hydrazinyl)prop-1-en-2-yl)benzamide]	57.5 ± 2.12%	11 ± 1.41%	1.21 ± 0.03 mM	80 ± 1.92%	34.4 ± 3.32%	23 ± 2.83%	444 ± 9.17 µM	215.4 ± 1.25 µM	–	–	–	–	–
N-(3-(2-(1-(2-((2,4-Dimethylphenyl)amino)-2-oxoethyl)-2-oxoindolin-3-ylidene)hydrazinyl)-1-(4-hydroxy-3-methoxyphenyl)-3-oxoprop-1-en-2-yl)benzamide [Compound 25]	–	–	0.162 ± 0.023 mM	–	–	–	–	–	71.50 ± 3.54%	13.30±1.84%	87.94 ± 2.33%	40.50 ± 3.54%	79.00 ± 2.83%

Source: publication PMC12196476, “New Nitrogen-, Oxygen-, and Sulfur-Containing Heterocyclic Compounds as Anti-Colon Cancer Agents: Synthesis, Multitargeted Evaluations, Molecular Docking Simulations and ADMET Predictions” (Pharmaceuticals, 2025)
